Marks after values point to notes of the source that are not given here.
Columns and labels:
Type in all cases: in vivo, male Wistar rats
[1] = Open field activity monitor, test for sedation in normal rats; conditions: for largest non-sedating dose: intraperitoneally, rats; for open field activity monitor, mean: male, Wistar, rat, in vivo, ip, 20 min
Protocol: (§1) Experiments were performed on male Wistar rats (wt 150-220g). Two series of experiments were performed in an observer blinded fashion with saline (negative) controls and GABAPentin (positive) controls. The investigations were in two stages: • 1. a range of doses of aprepitant (an example of a NK antagonist) given alone and in combination with flupirtine (an example of an inhibitor of neuronal excitation) were tested for sedating effects using the open field activity monitor.
Individual rats (several rats per treatment group) were placed in an open field activity monitor in which the movement of the rat could be monitored remotely by the frequency and number of interruption of infrared beams directed across the box in a grid. The activity in the monitor was measured for periods of 20 minutes in each rat. This was performed in groups of rats that received (1) control injection of saline, (2) GABAPentin 50 mg/kg as the maximum dose of that drug found previously not to be sedating (drug positive control) administered intraperitoneally, or (3) after pharmacological interventions that involve the administration of aprepitant and flupirtine given at a range of doses alone and in combination. If a rat was sedated by a drug or drug combination, the movements recorded were less. Since rats become habituated to the open field monitor, only one experiment was performed on each rat with this test.
These were the upper dose limits for subsequent experiments investigating the analgesic effects of these drugs administered together in combinations.

[2] = tested on: streptozotocin-induced diabetic neuropathy; assay: Reversal of allodynia (von Frey hair) in streptozotocin-induced diabetic neuropathy; conditions: each drug alone at non sedating doses, intraperitoneal
Protocol: as §1
Rats were injected intraperitoneally with streptozotocin (150 mg per kg total dose—Sapphire Bioscience) dissolved in sodium chloride 0.9%. The induction of diabetes was confirmed one week after injection of streptozotocin and weekly thereafter by measurement of tail vein blood glucose levels with Ames Glucofilm test strips and Ames Glucometer blood glucose meter. Only animals with blood glucose levels greater than or equal to 15 mM and maintained continuously for 5 weeks were deemed to be diabetic. […] At the end of five weeks these rats were assessed with the methods of measuring hyperalgesia (paw flick—Hargreaves method) and allodynia (withdrawal from von Frey Hair stimulation at normally non noxious intensity) to elucidate the antinociceptive effects of flupirtine and aprepitant given intraperitoneally alone and in combination (with saline and GABApentin for comparison).

[3] = tested on: streptozotocin-induced diabetic neuropathy; assay: Reversal of heat hyperalgesia (paw flick, Hargreaves) in streptozotocin-induced diabetic neuropathy
Protocol: Male Wistar rats (wt 50-70 g) were given streptozotocin 150 mg/kg intraperitoneally. […] The largest non-sedating doses of GABAPentin (50 mg/kg intraperitoneally) and aprepitant (6.25 mg/kg intraperitoneally) were assessed for possible analgesic effect by measurement of the percentage reversal of the hyperalgesia caused by the diabetes assessed by withdrawal from noxious heat applied to the hind paw.
Experiments were performed in an observer blinded fashion with parallel saline treated controls:

Structure (SMILES)	largest non-sedating dose [1] [mg/kg]	open field activity monitor, mean ([1]; 6.25 mg/kg)	open field activity monitor, mean ([1]; 12.5 mg/kg)	open field activity monitor, mean ([1]; 25 mg/kg)	open field activity monitor, mean ([1]; 50 mg/kg)	open field activity monitor, mean ([1]; 100 mg/kg)	antinociception with respect to allodynia [2]	reversal of hyperalgesia (statistics) ([3]; GABAPentin 50 mg/kg alone vs saline, P<0.01)	percentage reversal of the hyperalgesia, mean ([3]; GABAPentin 50 mg/kg intraperitoneally alone, noxious heat to hind paw, n=17)
C[C@@H](O[C@H]1OCCN(Cc2n[nH]c(=O)[nH]2)[C@H]1c1ccc(F)cc1)c1cc(C(F)(F)F)cc(C(F)(F)F)c1 [aprepitant]	6.25	869.0	915.0*	964.6*	976.6*	1058.2	Neither drug at non sedating doses causes significant antinociception	–	–
NCC1(CC(=O)O)CCCCC1 [GABAPentin]	50	–	–	–	–	–	–	statistically significant reversal of hyperalgesia	27.67

— patent US20100316678A1, “COMBINATION METHODS AND COMPOSITIONS FOR TREATMENT OF NEUROPATHIC PAIN” (CNSBio Pty Ltd., priority 2007, published 2010)
